In US20170334934A1, “Macrocyclic picolinamides as fungicides” (DOW AGROSCIENCES LLC, priority 2014, published 2017):
Like-named read-outs stand apart in the source and are kept apart here.

Experiments:
Puccinia triticina = assay: Fungicidal activity: Wheat Brown Rust (PUCCRT), wheat seedlings; assay type: in vivo; conditions: Low Volume (121.5 g/H)
Method: Technical grades of materials were dissolved in acetone, which were then mixed with nine volumes of water containing 110 ppm Triton X-100. The fungicide solutions were applied onto wheat seedlings using an automated booth sprayer to run-off. All sprayed plants were allowed to air dry prior to further handling. All fungicides were evaluated using the aforementioned method for their activity vs. all target diseases, unless stated otherwise. Wheat leaf blotch and brown rust activity were also evaluated using track spray applications, in which case the fungicides were formulated as EC formulations, containing 0.1% Trycol 5941 in the spray solutions. Wheat plants (variety Yuma) were grown from seed in a greenhouse in 50% mineral soil/50% soil-less Metro mix until the first leaf was fully emerged, with 7-10 seedlings per pot. These plants were inoculated with an aqueous spore suspension of Zymoseptoria tritici either prior to or after fungicide treatments. After inoculation the plants were kept in 100% relative humidity (one day in a dark dew chamber followed by two to three days in a lighted dew chamber at 20° C.) to permit spores to germinate and infect the leaf. The plants were then transferred to a greenhouse set at 20° C. for disease to develop. When disease symptoms were fully expressed on the 1st leaves of untreated plants, infection levels were assessed on a scale of 0 to 100 percent disease severity. Percent disease control was calculated using the ratio of disease severity on treated plants relative to untreated plants. Example B: Evaluation of Fungicidal Activity: Wheat Brown Rust (Puccinia triticina; Synonym: Puccinia recondita f. sp. tritici; Bayer Code PUCCRT) Wheat plants (variety Yuma) were grown from seed in a greenhouse in 50% mineral soil/50% soil-less Metro mix until the first leaf was fully emerged, with 7-10 seedlings per pot. These plants were inoculated with an aqueous spore suspension of Puccinia triticina either prior to or after fungicide treatments. After inoculation the plants were kept in a dark dew room at 22° C. with 100% relative humidity overnight to permit spores to germinate and infect the leaf. The plants were then transferred to a greenhouse set at 24° C. for disease to develop. Fungicide formulation, application and disease assessment followed the procedures as described in the Example A.

[1] = test system: Mycosphaerella graminicola; Anamorph: Zymoseptoria tritici; assay: Fungicidal activity: Leaf Blotch of Wheat (SEPTTR), wheat seedlings; assay type: in vivo; conditions: Low Volume (121.5 g/H), wheat
Method: Example A: Evaluation of Fungicidal Activity: Leaf Blotch of Wheat (Mycosphaerella graminicola; Anamorph: Zymoseptoria tritici; Bayer Code […]) Technical grades of materials were dissolved in acetone, which were then mixed with nine volumes of water containing 110 ppm Triton X-100. The fungicide solutions were applied onto wheat seedlings using an automated booth sprayer to run-off. All sprayed plants were allowed to air dry prior to further handling. All fungicides were evaluated using the aforementioned method for their activity vs. all target diseases, unless stated otherwise. Wheat leaf blotch and brown rust activity were also evaluated using track spray applications, in which case the fungicides were formulated as EC formulations, containing 0.1% Trycol 5941 in the spray solutions. Wheat plants (variety Yuma) were grown from seed in a greenhouse in 50% mineral soil/50% soil-less Metro mix until the first leaf was fully emerged, with 7-10 seedlings per pot. These plants were inoculated with an aqueous spore suspension of Zymoseptoria tritici either prior to or after fungicide treatments. After inoculation the plants were kept in 100% relative humidity (one day in a dark dew chamber followed by two to three days in a lighted dew chamber at 20° C.) to permit spores to germinate and infect the leaf. The plants were then transferred to a greenhouse set at 20° C. for disease to develop. When disease symptoms were fully expressed on the 1st leaves of untreated plants, infection levels were assessed on a scale of 0 to 100 percent disease severity. Percent disease control was calculated using the ratio of disease severity on treated plants relative to untreated plants.

Row | SMILES | melting point | pest or weed control at 121.5 g/ha (Puccinia triticina; 24 h, 1 Day Protectant, read-out: PUCCRT disease control rating, 1DP) | pest or weed control at 121.5 g/ha (Puccinia triticina; 72 h, 3 Day Curative, read-out: PUCCRT disease control rating, 3DC) | pest or weed control at 121.5 g/ha ([1]; 24 h, 1 Day Protectant, read-out: SEPTTR disease control rating, 1DP) | pest or weed control at 121.5 g/ha ([1]; 72 h, 3 Day Curative, read-out: SEPTTR disease control rating, 3DC)
1 | C[C@@H]1OC(=O)[C@@H](NC(=O)OC(C)(C)C)CCOC[C@H]1O [Compound 24, tert-butyl ((3R,4S,7S)-3-hydroxy-4-methyl-6-oxo-1,5-dioxonan-7-yl)carbamate] | 148 to 152 °C | – | – | – | –
2 | CC(C)CO[C@@H]1COCC[C@H](NC(=O)OC(C)(C)C)C(=O)O[C@H]1C [Compound 29] | 99 to 103 °C | – | – | – | –
3 | C[C@@H]1OC(=O)[C@@H](NC(=O)OC(C)(C)C)CCOC[C@H]1OCCCC(F)(F)F [Compound 30] | 80 to 83 °C | – | – | – | –
4 | COc1ccnc(C(=O)N[C@H]2CCOC[C@@H](OCCCC(F)(F)F)[C@H](C)OC2=O)c1OC(C)=O [Compound 101] | 43 to 48 °C | > 70% | > 70% | < 70% | < 70%
